Data set [1] concerns primary cultures of mouse cortical neurons. Nature of the data set: Cell viability tested with trypan blue 0.4% reagent after glutamate stimulation. Format: cell-based. As to conditions: for trypan blue staining / time at which nucleus was stained by trypan blue (cell death): 90 seconds; for time at which cell death was confirmed with trypan blue: 120 seconds. As for the experimental part:
(§1) In order to validate the measurement principle proposed in this application, the cell viability is also tested with trypan blue 0.4% reagent, to enable comparative measurements. The dye relies on probing the cell membrane integrity, which becomes permeable to the color compound at a certain level after cell death mechanisms started. After reagent wash-out, the cell nuclei of non-viable cells are consequently stained in blue, as the dye fixes on DNA material. Excitotoxic effects were studied during the experiments, by applying glutamate pulses at different concentration to the cells. The excitation solutions were prepared with concentrations ranging between 25 μM and 100 μM, depending on the type of experiment. Perfusion changes were performed by washing the chamber with a micropipette, making it possible to replace the perfusion medium through typically two washes of the medium.
In order to enable color measurement for cell viability assessment with the reagent, a flip mirror is inserted after the MO, so that the intensity image could also be recorded in focus with a color camera. When performing trypan blue staining, the illumination is changed to employ an incoherent halogen white light source to enable color measurement; this implies that during dye probing, no DHM measurement is performed, yielding part of unmeasured phase signal during time monitoring. Image merging between the two measurement techniques could be done through calibration of the system by imaging an object whose shape is well-known.
Brightfield color images of the culture, enabling the assessment through the trypan blue dye as a control experiment, are presented in FIGS. 4(b-c), respectively at t=30 min before the excitotoxic stimulation and t=290 min, where non viable cells are identified by the blue staining.

For data set [2] the test system is unchanged. Nature of the data set: Mean phase value on cell bodies monitored over time by digital holographic microscopy (DHM) after glutamate-induced excitotoxic stimulation. The format is cell-based.
Text: The particular implementation is a transmission DHM setup making possible to monitor cells in time through phase measurement. The sketch of the optical arrangement of the measurement setup is shown in FIG. 3, where the light emitted by a light source is split into two beams and recombined to generate an interference producing a hologram on the camera. […] Phase images are reconstructed by a numerical method for off-axis digital hologram reconstruction.
In the different experiments described below, the optical property, employed for cell death detection is the mean phase value measured on cell bodies and monitored during time. The phase value is intrinsically a relative measurement that has to be compared with a phase reference, usually taken as the phase shift induced by the perfusion medium. Physically, the phase value φ can thus be related to an optical path length (OPL) as
[formula] where the indices i and m correspond respectively to the intracellular content of the cell and to the perfusion medium, h is the height of the cell at position (x, y) and n is the mean refractive index (RI) along the optical axis. The phase is measured by calculating a spatial averaging of the phase value on a constant surface contained in the cell body, to which a reference phase value measured on a zone of the field of view containing no biological material has been subtracted.
The meaning of the phase measured with an interferometric method in this context is dependent on the height of the cell and on its intracellular RI. Therefore, the phase is linked both to the cell volume phenotype (through cell height), and to the intracellular content of cells phenotype (through RI), and thus indirectly to the osmotic regulation of the cell. The phase signal is therefore an indicator of cell volume regulation through both parameters, and can be indirectly linked to homeostasis through osmotic phenomena.
This particular study is performed on primary cultures of mouse cortical neurons, mounted on coverslips for optical measurement. Before experiment, coverslips are mounted on a perfusion chamber used to apply the different solutions to the cells, which are immersed in a HEPES-buffered standard physiological perfusion medium. As an example of application of cell death detection through volume regulation, we present in the following a detection of neuronal death induced through glutamate-induced excitotoxic stimulation, ultimately leading to cell death. The glutamate is a neurotransmitter activating neuronal receptors, leading under strong exposure to high level of intracellular calcium concentration, which can lead to death pathway triggering if not regulated properly.
as §1
The mean phase value measured on four cell bodies is shown in FIG. 4(a), where the reagent has been applied several times on the culture with an interval of approximately one hour. […]

Setting [3] is: glutamate 50 μM during 90 seconds, cell 4.

Entries after “also recorded” stand apart in the source; their conditions may differ.

As for `N[C@@H](CCC(=O)O)C(=O)O` [glutamate], the trypan blue staining entry in data set [1] (glutamate 25 μM, up to 4 hours and 30 minutes after stimulation) is reported as “all cells being unstained”; in data set [1] (glutamate 50 μM, cell 4, several hours after exposure), “remained unstained with a healthy morphology”. For the same molecule, the “time at which nucleus was stained by trypan blue (cell death)” value came out at 116 min in data set [1] (glutamate 50 μM, cell 1); 207 min in data set [1] (glutamate 50 μM, cell 2); 252 min in data set [1] (glutamate 50 μM, cell 3). Besides, the “time at which cell death was confirmed with trypan blue” value in data set [1] (glutamate 50 μM, cell 3) is recorded as 385 min; in data set [1] (glutamate 50 μM, cells 1 and 2), 323 min. Further, the phase variations entry in data set [2] (setting [3]) is “below 10 °”. Moreover, in data set [2] (setting [3]), the “time to retrieve the same mean phase value” is reported as “approximately 10 minutes”. The phase signal drop entry in data set [2] (glutamate 50 μM during 90 seconds, three of four cells (cells 1 to 3)) is “approximately 40 °”. For the same molecule, the phase response result is “reversible responses in phase; also recorded: only recovery curves” in data set [2] (glutamate pulse 25 μM, 90 seconds, n=10 cells); “mixed responses between recovery and death” in data set [2] (glutamate pulse 50 μM, 90 s); “irreversible signals” in data set [2] (glutamate pulse 50 μM, 120 s).

The record behind these values is patent publication US10495627B2, “Apparatus and method for early diagnosis of cell death” (LYNCEE TEC S.A., priority 2010, dated 2019).
